Experimental data reported in patent US11801256B2, “Antidepressant-psilocybin co-treatment to assist psychotherapy” (Universitätsspital Basel, priority 2021, dated 2023).

Assays:
BDNF = experiment: Plasma BDNF levels (ELISA); format: in vivo, human; conditions: escitalopram 14 days pretreatment vs placebo
Description: Psychedelics can induce neuroregeneration (Ly et al., 2018). Plasma BDNF levels are a possible biomarker for neurogenesis (Haile et al., 2014). Psychedelics increase BDNF (Holze et al., 2021; Hutten et al., 2020) and higher BDNF levels were associated with lower depression ratings after administration of psychedelics (de Almeida et al., 2019). Plasma BDNF levels were measured at baseline and 4 and 7 hours after drug administration using the Biosensis Mature BDNF Rapid ELISA Kit (Thebarton, Australia) (Akimoto et al., 2019).

healthy subjects [1] = experiment: Autonomic measures (blood pressure, heart rate, body temperature, pupil size)
Description: Study design: A double-blind, cross-over design was used with two conditions. […] 2) Pretreatment with placebo for 14 days with the last administration on the study day and administration of 25 mg psilocybin 2 hours later. Treatment order was random and counterbalanced. Between the 14 days pretreatment and the study day, there were at least 2 days washout until the next pretreatment phase began.
Autonomic measures: Blood pressure, heart rate, and body temperature were recorded at baseline and repeatedly throughout the session. Blood pressure (systolic and diastolic) and heart rate were measured with an automatic oscillometric device. Body temperature was measured with an ear thermometer as previously described in detail (Hysek et al., 2010). Measures were taken before and at 0, 0.25, 0.5, 0.75, 1, 1.5, 2, 2.5, 3, 4, 5, 6 and 7 hours after psilocybin administration.
Data analysis: Peak (Emax and/or Emin) or peak change from baseline (ΔEmax) values were determined for repeated measures. The values were then analyzed using paired T-tests using Statistica 12 software (StatSoft, Tulsa, OK, USA). The criterion for significance was p<0.05.

healthy subjects [2] = experiment: QTc time; format: in vivo, human; conditions: escitalopram pretreatment compared with placebo
From the text: Exclusion criteria: Chronic or acute medical condition, including a history of seizures. Current or previous major psychiatric disorder (e.g. psychotic disorders, mania/hypomania, anxiety disorders, and substance abuse). Psychotic disorder in first-degree relatives, not including psychotic disorders secondary to an apparent medical reason, e.g. brain injury, dementia, or lesions of the brain. Illicit substance use (with the exception of cannabis) more than 10 times or any time within the previous two months. History of an angle closure glaucoma. Pregnant or nursing women. Participation in another clinical trial (currently or within the last 30 days). […] A corrected QT time (QTc), calculated by Bazett's formula, of over 450 milliseconds in males and over 470 milliseconds in females. Tobacco smoking (>10 cigarettes/day). Consumption of alcoholic drinks (>10 drinks/week). Bodyweight <45 kg.

CN(C)CCC[C@@]1(c2ccc(F)cc2)OCc2cc(C#N)ccc21 [Escitalopram, escitalopram]
effect on the psilocybin-induced moderate increase in BDNF (BDNF): did not significantly alter
effect on psilocybin-induced elevations in peak systolic blood pressure (healthy subjects [1]; escitalopram 14 days pretreatment vs placebo, P<0.001): reduced
effect on psilocybin-induced elevations in rate pressure product (healthy subjects [1]; escitalopram 14 days pretreatment vs placebo, P=0.001): reduced
effect on psilocybin-induced pupil dilation (healthy subjects [1]; escitalopram 14 days pretreatment vs placebo, P=0.002): reduced
effect on psilocybin-induced elevations in peak diastolic blood pressure (healthy subjects [1]; escitalopram 14 days pretreatment vs placebo, P=0.017): reduced
effect on psilocybin-induced cardio-stimulant effects (healthy subjects [1]; escitalopram pretreatment compared to psilocybin alone (summary)): reduced
effect on adverse autonomic effects of psilocybin (healthy subjects [1]; escitalopram pretreatment compared with placebo pretreatment (summary)): significantly reduced
QTc time before or after psilocybin administration (healthy subjects [2]): did not alter
